Measurements reported in patent US20240228506A1, “RIPK1 INHIBITORS AND METHODS OF USE” (Merck Sharp & Dohme LLC, priority 2021, published 2024).

molecular target: T1, GST-RIPK1 (recombinant GST-RIPK1 kinase domain (residues 1-327)) (Homo sapiens, UniProt Q13546); assay: RIPK1-ADP-Glo enzymatic assay; type: biochemical; conditions: 25 nM GST-RIPK1, 300 μM ATP, 3 μM dephosphorylated-MBP; 30 minutes pre-incubation, 150 minutes reaction; ten-point titration
T1 construct: recombinant GST-RIPK1 kinase domain (residues 1-327) enzyme; made in house; host or cells: baculovirus-transfected Sf21 insect cells
T1 sequence (Q13546 1-327): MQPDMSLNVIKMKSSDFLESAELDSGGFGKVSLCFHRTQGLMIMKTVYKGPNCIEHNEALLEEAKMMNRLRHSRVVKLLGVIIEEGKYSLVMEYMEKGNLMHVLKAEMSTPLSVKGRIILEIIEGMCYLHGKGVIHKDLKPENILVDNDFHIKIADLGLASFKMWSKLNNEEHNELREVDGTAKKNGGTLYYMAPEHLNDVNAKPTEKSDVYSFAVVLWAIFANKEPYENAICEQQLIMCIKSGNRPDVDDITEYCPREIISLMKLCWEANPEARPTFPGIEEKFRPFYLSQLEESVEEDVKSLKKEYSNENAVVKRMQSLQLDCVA
Protocol: The enzymatic activity of RIPK1 is measured using an assay derived from ADP-Glo kit (Promega™), which provides a luminescent-based ADP detection system. Specifically, the ADP generated by RIPK1 kinase is proportionally detected as luminescent signals in a homogenous fashion. In this context, the assessment of the inhibitory effect of small molecules (EC50) is measured by the effectiveness of the compounds to inhibit the ATP to ADP conversion by RIPK1. In this assay, the potency (EC50) of each compound was determined from a ten-point (1:3 serial dilution; top compound concentration of 100000 nM) titration curve using the following outlined procedure. To each well of a white ProxiPlus 384 well-plate, […] of compound (1% DMSO in final assay volume of 3 μL) was dispensed, followed by the addition of 2 μL of 1× assay buffer (25 mM Hepes 7.3, 20 mM MgCl2, 50 mM NaCl, 1 mM DTT, 0.005% Tween20, and 0.02% BSA) containing 37.5 nM of GST-RIPK1 (recombinant GST-RIPK1 kinase domain (residues 1-327) enzyme produced from baculovirus-transfected Sf21 cells: MW=62 kDa). Plates were placed in an ambient temperature humidified chamber for a 30 minutes pre-incubation with compound. Subsequently, each reaction was initiated by the addition of 1 μL 1×assay buffer containing 900 μM ATP and […]. The final reaction in each well of 3 μL consists of 25 nM of GST-RIPK1, 300 μM ATP, and 3 μM dephosphorylated-MBP. Kinase reactions were allowed to proceed for 150 minutes prior to adding ADP-Glo reagents per Promega's outlined kit protocol. Dose-response curves were generated by plotting percent effect (% product conversion; Y-axis) vs. Log10 compound concentrations (X-axis). EC50 values were calculated using a non-linear regression, four-parameters sigmoidal dose-response model.

| IC50 [nM] | SMILES |
| --- | --- |
| 36 | CC(C)(C(=O)N1C[C@@H]2C[C@H]1c1cncc(C#Cc3cccnc3)c1O2)C(F)F [Compound 2-48, 3,3-difluoro-2,2-dimethyl-1-((2S,5S)-9-(pyridin-3-ylethynyl)-2,3-dihydro-2,5-methanopyrido[3,4-f][1,4]oxazepin-4(5H)-yl)propan-1-one] |
| 84 | Cc1ncc2c(c1C#N)O[C@H]1C[C@@H]2N(C(=O)C(C)(C)C(F)F)C1 [Compound 1-18, (2S,5S)-4-(3,3-difluoro-2,2-dimethylpropanoyl)-8-methyl-2,3,4,5-tetrahydro-2,5-methanopyrido[3,4-f][1,4]oxazepine-9-carbonitrile] |
| 347 | CCC1(C(=O)N2C[C@@H]3C[C@H]2c2cncc(C#N)c2O3)CC1 [Compound 1-74, (2S,5S)-4-(1-ethylcyclopropane-1-carbonyl)-2,3,4,5-tetrahydro-2,5-methanopyrido[3,4-f][1,4]oxazepine-9-carbonitrile] |
| 18 | CC(F)(F)C(C)(C)C(=O)N1C[C@@H]2C[C@H]1c1cncc(Cl)c1O2 [Compound 2-5, 1-[(2S,5S)-9-chloro-2,3-dihydro-2,5-methanopyrido[3,4-f][1,4]oxazepin-4(5H)-yl]-3,3-difluoro-2,2-dimethylbutan-1-one] |
| 77 | N#Cc1cncc2c1O[C@H]1C[C@@H]2N(C(=O)C23CCCCC2C3)C1 (stereo partly drawn) [Compound 1-78, (2S,5S)-4-(bicyclo[4.1.0]heptane-1-carbonyl)-2,3,4,5-tetrahydro-2,5-methanopyrido[3,4-f][1,4]oxazepine-9-carbonitrile] |
| 51 | N#Cc1cncc2c1O[C@H]1C[C@@H]2N(C(=O)C2(C(F)F)CCCC2)C1 [Compound 1-14, (2S,5S)-4-[1-(difluoromethyl)cyclopentane-1-carbonyl]-2,3,4,5-tetrahydro-2,5-methanopyrido[3,4-f][1,4]oxazepine-9-carbonitrile] |
| 114 | CC(C)(CF)C(=O)N1C[C@@H]2C[C@H]1c1cncc(C#N)c1O2 [Compound 1-42, (2S,5S)-4-(3-fluoro-2,2-dimethylpropanoyl)-2,3,4,5-tetrahydro-2,5-methanopyrido[3,4-f][1,4]oxazepine-9-carbonitrile] |
| 68 | CC(C)(C(=O)N1C[C@@H]2C[C@H]1c1cncc(C#Cc3ncco3)c1O2)C(F)F [Compound 2-72] |
| 18 | COc1ccc(C#Cc2cncc3c2O[C@H]2C[C@@H]3N(C(=O)C34CCC(C(F)(F)F)(CC3)C4)C2)cc1 [Compound 2-65, ((2S,5S)-9-((4-methoxyphenyl)ethynyl)-2,3-dihydro-2,5-methanopyrido[3,4-f][1,4]oxazepin-4(5H)-yl)(4-(trifluoromethyl)bicyclo [2.2.1]heptan-1-yl)methanone] |
| 24 | N#Cc1cncc2c1O[C@H]1C[C@@H]2N(C(=O)C23CCC(C(F)F)(CC2)C3)C1 [Compound 1-19, (2S,5S)-4-[4-(difluoromethyl)bicyclo[2.2.1]heptane-1-carbonyl]-2,3,4,5-tetrahydro-2,5-metanopyrido[3,4-f][1,4]oxazepine-9-carbonitrile] |
| 26 | O=C(N1C[C@@H]2C[C@H]1c1cncc(F)c1O2)C12CCC(F)(CC1)C2 [Compound 2-7, (4-fluorobicyclo[2.2.1]heptan-1-yl)[(2S,5S)-9-fluoro-2,3-dihydro-2,5-methanopyrido[3,4-f][1,4]oxazepin-4(5H)-yl]methanone] |
| 34 | N#Cc1cncc2c1O[C@H]1C[C@@H]2N(C(=O)C23CCC(CC2)CC3)C1 [Compound 1-61, (2S,5S)-4-(bicyclo[2.2.2]octane-1-carbonyl)-2,3,4,5-tetrahydro-2,5-methanopyrido[3,4-f][1,4]oxazepine-9-carbonitrile] |
| 394 | CC(C)(C)C(=O)N1C[C@@H]2C[C@H]1c1cncc(Br)c1O2 [Compound 2-8, 1-((2S,5S)-9-bromo-2,3-dihydro-2,5-methanopyrido[3,4-f][1,4]oxazepin-4(5H)-yl)-2,2-dimethylpropan-1-one] |
| 27 | N#Cc1cncc2c1S[C@H]1C[C@@H]2N(C(=O)C2(C#N)CCCC2)C1 [Compound 4-7, (2S,5S)-4-(1-cyanocyclopentane-1-carbonyl)-2,3,4,5-tetrahydro-2,5-methanopyrido[3,4-f][1,4]thiazepine-9-carbonitrile] |
| 203 | CC12CC(C(=O)N3C[C@@H]4C[C@H]3c3cncc(C#N)c3O4)(C1)C2 [Compound 1-104, (2S,5S)-4-(3-methylbicyclo[1.1.1]pentane-1-carbonyl)-2,3,4,5-tetrahydro-2,5-methanopyrido[3,4-f][1,4]oxazepine-9-carbonitrile] |
| 30 | O=C(N1C[C@@H]2C[C@H]1c1cncc(C#Cc3ccncc3)c1O2)C12CCC(C(F)(F)F)(CC1)C2 [Compound 2-52, ((2S,5S)-9-(pyridin-4-ylethynyl)-2,3-dihydro-2,5-methanopyrido[3,4-f][1,4]oxazepin-4(5H)-yl)(4-(trifluoromethyl)bicyclo [2.2.1]heptan-1-yl)methanone] |
| 13 | COc1cccc(C#Cc2cncc3c2O[C@H]2C[C@@H]3N(C(=O)C34CCC(F)(CC3)C4)C2)c1 [Compound 2-98, (4-fluorobicyclo[2.2.1]heptan-1-yl)((2S,5S)-9-((3-methoxyphenyl)ethynyl)-2,3-dihydro-2,5-methanopyrido[3,4-f][1,4]oxazepin-4(5H)-yl)methanone] |
| 491 | CCC(F)(F)C(C)(C)C(=O)N1C[C@@H]2C[C@H]1c1cncc(C#N)c1O2 [Compound 1-43, (2S,5S)-4-(3,3-difluoro-2,2-dimethylpentanoyl)-2,3,4,5-tetrahydro-2,5-methanopyrido[3,4-f][1,4]oxazepine-9-carbonitrile] |
| 184 | N#Cc1cncc2c1O[C@H]1C[C@@H]2N(C(=O)C2(C#N)CCCC2)C1 [Compound 1-111, (2S,5S)-4-(1-cyanocyclopentane-1-carbonyl)-2,3,4,5-tetrahydro-2,5-methanopyrido[3,4-f][1,4]oxazepine-9-carbonitrile] |
| 254 | N#Cc1cncc2c1O[C@H]1C[C@@H]2N(C(=O)C2(CC(F)F)CCC2)C1 [Compound 1-44, (2S,5S)-4-[1-(2,2-difluoroethyl)cyclobutane-1-carbonyl]-2,3,4,5-tetrahydro-2,5-methanopyrido[3,4-f][1,4]oxazepine-9-carbonitrile] |
| 28 | N#Cc1cncc2c1O[C@H]1C[C@@H]2N(C(=O)C23CCC(C#N)(C2)C3)C1 [Compound 1-100, (2S,5S)-4-(4-cyanobicyclo[2.1.1]hexane-1-carbonyl)-2,3,4,5-tetrahydro-2,5-methanopyrido[3,4-f][1,4]oxazepine-9-carbonitrile] |
| 367 | N#Cc1cncc2c1O[C@H]1C[C@@H]2N(C(=O)C23CCC(C2)OC3)C1 (single isomer, unassigned) [Compound 1-51, (2S,5S)-4-[(S or R)-2-oxabicyclo[2.2.1]heptane-4-carbonyl]-2,3,4,5-tetrahydro-2,5-methanopyrido[3,4-f][1,4]oxazepine-9-carbonitrile] |
| 15 | N#Cc1cncc2c1S[C@H]1C[C@@H]2N(C(=O)C23CCC(C(F)(F)F)(CC2)C3)C1 [Compound 4-2, (2S,5S)-4-(4-(trifluoromethyl)bicyclo[2.2.1]heptane-1-carbonyl)-2,3,4,5-tetrahydro-2,5-methanopyrido[3,4-f][1,4]thiazepine-9-carbonitrile] |
| 74 | CC(C)(C(=O)N1C[C@@H]2C[C@H]1c1cncc(F)c1O2)C1CC1 [Compound 2-16, 2-cyclopropyl-1-((2S,5S)-9-fluoro-2,3-dihydro-2,5-methanopyrido[3,4-f][1,4]oxazepin-4(5H)-yl)-2-methylpropan-1-one] |
| 64 | O=C(N1C[C@@H]2C[C@H]1c1cncc(C#CCC3CCOC3)c1O2)C12CCC(F)(CC1)C2 (stereo partly drawn) [Compound 2-118, (4-fluorobicyclo[2.2.1]heptan-1-yl)((2S,5S)-9-(3-(tetrahydrofuran-3-yl)prop-1-yn-1-yl)-2,3-dihydro-2,5-methanopyrido[3,4-f][1,4]oxazepin-4(5H)-yl)methanone] |

| SMILES | IC50 [nM] |
| --- | --- |
| N#Cc1cncc2c1OC[C@H]1CC[C@@H]2N1C(=O)C12CCC(F)(CC1)C2 [Compound 5-1, (3R,6S)-11-(4-Fluorobicyclo[2.2.1]heptane-1-carbonyl)-3,4,5,6-tetrahydro-2H-3,6-epiminooxocino[3,2-c]pyridine-10-carbonitrile] | 95 |
